The source made the active and inactive calls. The rule behind the calls is not given here.
Columns and labels:
[1] = test system: Felis catus; assay: Compound tested in vivo for sympathetic neuronal activity in cat cardioaccelerator nerve after iv administration; assay type: functional; conditions: Sympathetic neuron
[2] = molecular target: T1, Dopamine receptor (Homo sapiens) (UniProt P14416+P35462+P21918+P21917+P21728); assay: […] inhibitory activity against dopamine receptor in isolated cat atria; inactive; conditions: Felis catus; target entry is the homologue from another species
[3] = test system: Felis catus; assay: Compound tested in vitro for sympathetic neuronal activity in cat atria […]; no inhibition with concentrations uM; assay type: functional; conditions: Sympathetic neuron
[4] = test system: Felis catus; assay: Compound tested in vitro for sympathetic neuronal activity in cat atria […]; assay type: functional; conditions: Sympathetic neuron, read-out: ED50 (the source's name)
[5] = test system: Felis catus; assay: Compound tested in vivo for sympathetic neuronal activity in cat cardioaccelerator nerve after intraduodenal administration; assay type: functional; conditions: Sympathetic neuron
[6] = molecular target: T1, Dopamine receptor (Homo sapiens); assay: […] inhibitory activity against dopamine receptor in isolated cat atria; active; conditions: Felis catus; target entry is the homologue from another species

Row | Compound | ED50 [1] | Activity [2] | ED50 [3] | EC50 [4] | ED50 [5] | Activity [6]
1 | CN1C[C@H](CC#N)C[C@@H]2c3cccc4[nH]c(Cl)c(c34)C[C@H]21 [LERGOTRILE] | 0.27 µmol/kg | – | – | – | – | –
2 | CCCN(CCC)CCc1cccc2[nH]ccc12 | 0.22 µmol/kg | inactive | inactive | – | – | –
3 | CCCN(CCC)CCc1cc(O)cc2[nH]ccc12 | 0.019 µmol/kg | – | – | 27 nM | 0.047 µmol/kg | Active

Reference: ChEMBL document CHEMBL1122759, “6-Hydroxy-4-[2-(di-n-propylamino)ethyl]indole: synthesis and dopaminergic actions” (1984)
